Experiments:
Assay type in all cases: in vivo, rat
[1] = tested on: carrageenan-induced hyperalgesia in rats; assay: Carrageenan-induced hyperalgesia, mechanical nociceptive threshold after topical administration; conditions: male rats; carrageenan i.d.; 30 min later topical indomethacin 1 μg/μl with protamine 2 μg/μl, 30 μL; P<0.0001
Protocol: Male rats were treated with carrageenan (0.1% in 1 μg/5 μL) intradermally (i.d.), into the dorsum of the hind paw. Thirty minutes after the carrageenan administration, when hyperalgesia was established, animals received indomethacin combined with protamine or protamine alone, each in a volume of 30 μL, topically on the dorsum of one hind paw, at the site of the i.d. injection. Protamine was used at a concentration of 2 μg/μl and indomethacin was used at a concentration of 1 μg/μl. Mechanical nociceptive threshold was evaluated before carrageenan administration, and again 30 and 90 minutes after. […] Two-way repeated measures ANOVA, F(2.14)=40.46, P<0.0001. Bonferroni's multiple comparison post-hoc test. Data shown as mean±SEM; n=3 paws, per group.

[2] = tested on: rats with chemotherapy-induced painful peripheral neuropathy (CIPN); assay: Oxaliplatin-induced hyperalgesia (CIPN), mechanical nociceptive threshold after topical administration; conditions: oxaliplatin 2 mg/kg i.v. day 0, day 14 topical morphine 0.1 μg/μl with protamine 2 μg/μl, 30 μL on dorsum of hind paw, 30 and 60 min, P<0.0001
Protocol: Female rats received oxaliplatin (2 mg/kg, i.v.) on day 0. On day 14, at which time oxaliplatin-induced hyperalgesia was established, morphine combined with protamine or protamine alone (dissolved in distillated water-dH20) or morphine (using saline as a vehicle), each in a volume of 30 μL, was administered topically on the dorsum of one hind paw, at the site of nociceptive threshold testing. Protamine was used at a concentration of 2 μg/μl and morphine was used at a concentration of 0.1 μg/μl. Mechanical nociceptive threshold was evaluated before and 14 days after oxaliplatin administration, and again 30 and 60 minutes after topical drug administration. […] Two-way repeated measures ANOVA, F(6.18)=26.85, P<0.0001. Bonferroni's multiple comparison post-hoc test. n=3 per group.
Male rats received oxaliplatin (2 mg/kg, i.v.) on day 0. On day 14, at which time oxaliplatin-induced hyperalgesia was established, morphine combined with protamine or protamine alone, each in a volume of 30 μL, was administered topically on the dorsum of one hind paw, at the site of nociceptive threshold testing. Protamine was used at a concentration of 2 μg/μl and morphine was used at a concentration of 0.1 μg/μl. Mechanical nociceptive threshold was evaluated before and 14 days after oxaliplatin administration, and again 30 and 60 minutes after topical administration. […]

[3] = tested on: PGE2 hyperalgesia in rats; assay: PGE2-induced hyperalgesia, mechanical nociceptive threshold after topical administration; conditions: male rats; PGE2 100 ng/5 μL i.d.; 10 min later topical morphine 0.1 μg/μl with protamine 2 μg/μl, 30 μL; 30 and 60 min; P=0.0366
Protocol: Male rats received PGE2 (100 ng/5 μL, intradermally, i.d.), on the dorsum of the hind paw followed, 10 minutes later, by morphine combined with protamine or protamine alone (dissolved in distillated water-dH20) or morphine (using saline as a vehicle), each in a volume of 30 μL, was administered topically on the dorsum of one hind paw, at the site of the i.d. PGE2 injection. Protamine was used at a concentration of 2 μg/μl and morphine was used at a concentration of 0.1 μg/μl. Mechanical nociceptive threshold was evaluated before intradermal PGE2 and again 30 and 60 min after topical administration. […] Two-way repeated measures ANOVA, F(2.8)=4.25, *P=0.0366. Bonferroni's multiple comparison post-hoc test. Data shown as mean±SEM; n=3 paws, per group.

SMILES: COc1ccc2c(c1)c(CC(=O)O)c(C)n2C(=O)c1ccc(Cl)cc1 [indomethacin]
- effect on carrageenan-induced hyperalgesia (mechanical nociceptive threshold) [1]: attenuated carrageenan-induced hyperalgesia

SMILES: CN1CC[C@]23c4c5ccc(O)c4O[C@H]2[C@@H](O)C=C[C@H]3[C@H]1C5 [morphine]
- effect on oxaliplatin-induced hyperalgesia (mechanical nociceptive threshold) ([2]; female rats): attenuated oxaliplatin-induced hyperalgesia
- effect on oxaliplatin-induced hyperalgesia (mechanical nociceptive threshold) ([2]; male rats): attenuated oxaliplatin-induced hyperalgesia
- effect on PGE2-hyperalgesia (mechanical nociceptive threshold) [3]: significant attenuation of PGE2-hyperalgesia

— patent publication US20250017846A1, “TOPICAL ANALGESICS” (THE REGENTS OF THE UNIVERSITY OF CALIFORNIA, priority 2023, published 2025)
